From publication PMC3328272, “HIV-1 Nef interaction influences the ATP-binding site of the Src-family kinase, Hck” (BMC Chemical Biology, 2012)

Assays:
mHck = target: T1, mHck (Mus musculus, UniProt P08103, Q521E/Q522E/Q523I); assay: Z'-Lyte in vitro kinase assay, mHck alone; format: biochemical; details: read-out: Km, ATP
T1 construct: the N-terminal unique domain was replaced with a hexahistidine tag; hexahistidine (N); made in house; host or cells: Sf9 insect cells (baculovirus)
Protocol: (§1) Protein-tyrosine kinase assays were performed using the FRET-based Z'-Lyte kinase assay kit and Tyr-2 peptide substrate according to the manufacturer's instructions (Life Technologies) and our previous work. All assays were performed in quadruplicate in low-volume, non-binding 384-well plates (Corning). […] The Km for ATP was then calculated from a plot of ATP concentration against initial reaction velocity followed by non-linear regression analysis (GraphPad Prism). […] Development reagent was then added to the reaction for an additional 1 h at room temperature, followed by addition of the stop reagent. Fluorescence was assessed at an excitation wavelength of 400 nm; coumarin fluorescence and the fluorescein FRET signal were monitored at 445 and 520 nm, respectively. Reactions run in the absence of ATP served as the 0% phosphorylation control, whereas a stoichiometrically phosphorylated Tyr2 peptide was used as the 100% phosphorylation control. Raw fluorescence values were corrected for background, and reaction endpoints calculated as emission ratios of coumarin fluorescence divided by the fluorescein FRET signal. These ratios were normalized to the ratio obtained with the 100% phosphorylation control peptide. IC50 values were calculated using a sigmoidal curve fit using GraphPad Prism. […]

mHck-HART + Nef-SF2 = test system: T2, mHck-HART + Nef-SF2; assay: Z'-Lyte in vitro kinase assay, mHck-HART + Nef-SF2; format: biochemical, mouse; details: mHck-HART + Nef-SF2, Nef at 10-fold molar excess; read-out: Km, ATP
T2 construct: the N-terminal unique domain was replaced with a hexahistidine tag; hexahistidine (N); made in house; host or cells: Hck: Sf9 insect cells; Nef: E. coli
Protocol: as §1

mHck-TA + Nef-Consensus = target: T3, mHck-TA + Nef-Consensus (Mus musculus, UniProt P08103, Q521E/Q522E/Q523I/T331A); assay: Z'-Lyte in vitro kinase assay, mHck-TA + Nef-Consensus; format: biochemical; details: Nef at 10-fold molar excess, read-out: Km, ATP
T3 construct: the N-terminal unique domain was replaced with a hexahistidine tag; hexahistidine (N); made in house; host or cells: Hck: Sf9 insect cells; Nef: E. coli
T3 sequence (P08103 76-524 T331A/Q521E/Q522E/Q523I limits assumed): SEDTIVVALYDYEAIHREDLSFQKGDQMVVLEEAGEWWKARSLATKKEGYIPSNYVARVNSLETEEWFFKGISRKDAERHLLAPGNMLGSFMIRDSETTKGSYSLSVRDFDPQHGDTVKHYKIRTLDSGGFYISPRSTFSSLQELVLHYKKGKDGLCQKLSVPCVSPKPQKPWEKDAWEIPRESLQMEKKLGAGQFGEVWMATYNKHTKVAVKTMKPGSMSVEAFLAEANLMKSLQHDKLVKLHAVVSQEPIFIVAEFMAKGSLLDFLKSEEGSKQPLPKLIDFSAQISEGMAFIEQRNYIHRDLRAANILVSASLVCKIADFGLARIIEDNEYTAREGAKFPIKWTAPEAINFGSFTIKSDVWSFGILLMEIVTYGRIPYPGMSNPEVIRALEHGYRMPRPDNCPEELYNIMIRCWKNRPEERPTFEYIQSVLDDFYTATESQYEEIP
Protocol: as §1

mHck + Nef-SF2 = target: T4, mHck + Nef-SF2 (Mus musculus, UniProt P08103, Q521E/Q522E/Q523I); assay: Z'-Lyte in vitro kinase assay, mHck + Nef-SF2; format: biochemical; details: mHck + Nef-SF2, Nef at 10-fold molar excess; read-out: Km, ATP
T4 construct: the N-terminal unique domain was replaced with a hexahistidine tag; hexahistidine (N); made in house; host or cells: Hck: Sf9 insect cells; Nef: E. coli
T4 sequence (P08103 76-524 Q521E/Q522E/Q523I): as the sequence (P08103 76-524 T331A/Q521E/Q522E/Q523I limits assumed) above, with A256T counted along it
Protocol: as §1

mHck-HART = test system: T5, mHck-HART; assay: Z'-Lyte in vitro kinase assay, mHck-HART alone; format: biochemical, mouse; details: read-out: Km, ATP
T5 construct: the N-terminal unique domain was replaced with a hexahistidine tag; hexahistidine (N); made in house; host or cells: Sf9 insect cells (baculovirus)
Protocol: as §1

mHck-TA + Nef-SF2 = target: T6, mHck-TA + Nef-SF2 (Mus musculus, UniProt P08103, Q521E/Q522E/Q523I/T331A); assay: Z'-Lyte in vitro kinase assay, mHck-TA + Nef-SF2; format: biochemical; details: mHck-TA + Nef-SF2, Nef at 10-fold molar excess; read-out: Km, ATP
T6 construct: the N-terminal unique domain was replaced with a hexahistidine tag; hexahistidine (N); made in house; host or cells: Hck: Sf9 insect cells; Nef: E. coli
T6 sequence (P08103 76-524 T331A/Q521E/Q522E/Q523I limits assumed): as the sequence (P08103 76-524 T331A/Q521E/Q522E/Q523I limits assumed) above
Protocol: as §1

mHck-TA [1] = target: T7, mHck-TA (Mus musculus, UniProt P08103, Q521E/Q522E/Q523I/T331A); assay: Z'-Lyte in vitro kinase assay, mHck-TA alone; format: biochemical; details: read-out: Km, ATP
T7 construct: the N-terminal unique domain was replaced with a hexahistidine tag; hexahistidine (N); made in house; host or cells: Sf9 insect cells (baculovirus)
T7 sequence (P08103 76-524 T331A/Q521E/Q522E/Q523I limits assumed): as above
Protocol: as §1

[2] = target: mHck-TA-HART + Nef-Consensus (Mus musculus, UniProt P08103, A89S/E88T/E93W/H91F/I90P/Q521E/Q522E/Q523I/R92P/T331A); assay: Z'-Lyte in vitro kinase assay, mHck-TA-HART + Nef-Consensus; format: biochemical
Chain of mHck-TA-HART + Nef-Consensus (P08103 76-524 E88T/A89S/I90P/H91F/R92P/E93W/T331A/Q521E/Q522E/Q523I): as the sequence (P08103 76-524 T331A/Q521E/Q522E/Q523I limits assumed) above, with E13T, A14S, I15P, H16F, R17P, E18W counted along it
Protocol: as §1

mHck-TA-HART [3] = target: T8, mHck-TA-HART (Mus musculus, UniProt P08103, A89S/E88T/E93W/H91F/I90P/Q521E/Q522E/Q523I/R92P/T331A); assay: Z'-Lyte in vitro kinase assay, mHck-TA-HART alone; format: biochemical; details: read-out: Km, ATP
T8 construct: the N-terminal unique domain was replaced with a hexahistidine tag; hexahistidine (N); made in house; host or cells: Sf9 insect cells (baculovirus)
T8 sequence (P08103 76-524 E88T/A89S/I90P/H91F/R92P/E93W/T331A/Q521E/Q522E/Q523I): as the sequence (P08103 76-524 T331A/Q521E/Q522E/Q523I limits assumed) above, with E13T, A14S, I15P, H16F, R17P, E18W counted along it
Protocol: as §1

mHck-TA-HART + Nef-SF2 = target: T9, mHck-TA-HART + Nef-SF2 (Mus musculus, UniProt P08103, A89S/E88T/E93W/H91F/I90P/Q521E/Q522E/Q523I/R92P/T331A); format: biochemical
T9 construct: the N-terminal unique domain was replaced with a hexahistidine tag; hexahistidine (N); made in house; host or cells: Hck: Sf9 insect cells; Nef: E. coli
T9 sequence (P08103 whole entry E88T/A89S/I90P/H91F/R92P/E93W/T331A/Q521E/Q522E/Q523I, looked up, the tested form may be a part): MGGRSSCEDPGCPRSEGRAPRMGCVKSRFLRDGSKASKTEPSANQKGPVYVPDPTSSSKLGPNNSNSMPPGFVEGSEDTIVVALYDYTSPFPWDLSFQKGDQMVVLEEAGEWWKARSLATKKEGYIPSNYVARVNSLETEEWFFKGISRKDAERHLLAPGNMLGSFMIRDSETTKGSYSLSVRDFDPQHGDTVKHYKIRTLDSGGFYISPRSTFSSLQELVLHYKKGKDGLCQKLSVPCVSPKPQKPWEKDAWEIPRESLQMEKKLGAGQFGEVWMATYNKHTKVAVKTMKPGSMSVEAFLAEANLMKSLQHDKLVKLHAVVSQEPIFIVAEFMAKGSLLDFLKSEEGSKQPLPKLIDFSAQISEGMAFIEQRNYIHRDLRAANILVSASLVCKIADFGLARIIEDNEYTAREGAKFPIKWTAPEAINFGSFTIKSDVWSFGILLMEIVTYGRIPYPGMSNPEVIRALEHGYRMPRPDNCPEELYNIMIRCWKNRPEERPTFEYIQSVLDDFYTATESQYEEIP
Protocol: Protein-tyrosine kinase assays were performed using the FRET-based Z'-Lyte kinase assay kit and Tyr-2 peptide substrate according to the manufacturer's instructions (Life Technologies) and our previous work. All assays were performed in quadruplicate in low-volume, non-binding 384-well plates (Corning). […] The Km for ATP was then calculated from a plot of ATP concentration against initial reaction velocity followed by non-linear regression analysis (GraphPad Prism). […] Development reagent was then added to the reaction for an additional 1 h at room temperature, followed by addition of the stop reagent. Fluorescence was assessed at an excitation wavelength of 400 nm; coumarin fluorescence and the fluorescein FRET signal were monitored at 445 and 520 nm, respectively. Reactions run in the absence of ATP served as the 0% phosphorylation control, whereas a stoichiometrically phosphorylated Tyr2 peptide was used as the 100% phosphorylation control. Raw fluorescence values were corrected for background, and reaction endpoints calculated as emission ratios of coumarin fluorescence divided by the fluorescein FRET signal. These ratios were normalized to the ratio obtained with the 100% phosphorylation control peptide. IC50 values were calculated using a sigmoidal curve fit using GraphPad Prism. Additional details of the Z'-Lyte assay principle and calculation of percent inhibition has been described elsewhere.

Mouse Hck SH3 = target: T10, Mouse Hck SH3 (Mus musculus, UniProt P08103); assay: Surface plasmon resonance (SPR), Nef binding to immobilized SH3 domain; details: 1:1 Langmuir model
T10 construct: made in house; host or cells: E. coli BL21(DE3)pLysS
T10 sequence (P08103 76-136 limits assumed): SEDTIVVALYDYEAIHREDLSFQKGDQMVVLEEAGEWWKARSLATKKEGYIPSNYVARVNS
Protocol: (§2) Recombinant Hck SH3 domain proteins were exchanged into HBS-EP buffer (10 mM HEPES, pH 7.4, 150 mM NaCl, 3 mM EDTA, 0.05% v/v P20 surfactant) and concentrated with an Amicon Ultra 15 ml 3 kDa molecular weight cutoff spin concentrator. Primary untagged Nef proteins were exchanged into HBS-EPD buffer (10 mM HEPES, pH 7.4, 150 mM NaCl, 3 mM EDTA, 0.05% v/v P20 surfactant, 1 mM DTT) and concentrated with an Amicon Ultra 15 ml 10 kDa molecular weight cutoff spin concentrator. SPR analysis was performed on a BIAcore 3000 instrument (GE Healthcare) using a four-channel CM5 biosensor chip with the Hck SH3 domains covalently attached as ligand via standard amine coupling chemistry. […] The initial binding reaction was followed by dissociation for 5 min, and the chip surface was regenerated using HBS-EPD buffer at a flow rate of 30 μl/min for 10 min. Binding curves recorded at each analyte concentration were assessed in triplicate, corrected for buffer effects, and fit to a 1:1 Langmuir binding model using the BIAevaluation 4.1 software suite (GE Healthcare).

Mouse Hck HART = target: T11, Mouse Hck HART (Mus musculus, UniProt P08103, A89S/E88T/E93W/H91F/I90P/R92P); assay: as above
T11 construct: made in house; host or cells: E. coli BL21(DE3)pLysS
T11 sequence (P08103 76-136 E88T/A89S/I90P/H91F/R92P/E93W limits assumed): as the sequence (P08103 76-136 limits assumed) above, with E13T, A14S, I15P, H16F, R17P, E18W counted along it
Protocol: as §2

Human Hck SH3 = target: T12, Human Hck SH3 (Homo sapiens, UniProt P08631); assay: as above; details: 1:1 Langmuir model
T12 construct: made in house; host or cells: E. coli BL21(DE3)pLysS
T12 sequence (P08631 78-138 limits assumed): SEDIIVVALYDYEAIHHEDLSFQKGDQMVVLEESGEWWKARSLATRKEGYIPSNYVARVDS
Protocol: as §2

[4] = target: similarly modified Hck SH3 domain; details: ITC; read-out: interaction (KD) with a similarly modified Hck SH3 domain via ITC; cited from earlier work
mHck-TA-HART [5] = target: T8, mHck-TA-HART; assay: Nef-induced kinase activation over kinase:Nef ratios (Z'-Lyte); format: biochemical
Protocol: as §1, with “Reactions run in the absence of ATP served as the 0% phosphorylation control, whereas a stoichiometrically phosphorylated Tyr2 peptide was used as the 100% phosphorylation control.” left out, “These ratios were normalized to the ratio obtained with the 100% phosphorylation control peptide.” left out
(§3) To determine the impact of the SH3-HART modification in the context of near full-length Hck, we next introduced the HART coding sequence into mHck-TA. […] This observation fits with the smaller enhancement in SH3-HART binding to Nef-Consensus as determined by SPR. […]

mHck-TA [6] = target: T7, mHck-TA; assay: as above; format: biochemical
Protocol: as §1, with “Reactions run in the absence of ATP served as the 0% phosphorylation control, whereas a stoichiometrically phosphorylated Tyr2 peptide was used as the 100% phosphorylation control.” left out, “These ratios were normalized to the ratio obtained with the 100% phosphorylation control peptide.” left out
as §3

[7] = mHck-TA-HART with Nef-SF2 vs alone
[8] = HART vs wild-type mouse SH3 domain
[9] = Mouse Hck HART SH3 immobilized, 1:1 Langmuir model

T1 sequence (P08103 76-524 Q521E/Q522E/Q523I): as the sequence (P08103 76-524 T331A/Q521E/Q522E/Q523I limits assumed) above, with A256T counted along it

Nc1ncnc2c1ncn2[C@@H]1O[C@H](COP(=O)(O)OP(=O)(O)OP(=O)(O)O)[C@@H](O)[C@H]1O [ATP]
Km (mHck): 12.1 ± 2 µM | Km (mHck-HART + Nef-SF2): 49.3 ± 5.8 µM | Km (mHck-TA + Nef-Consensus): 84 ± 3.5 µM | Km (mHck + Nef-SF2): 14.8 ± 1.4 µM | Km (mHck-HART): 105 ± 29 µM | Km (mHck-TA + Nef-SF2): 68 ± 10.7 µM | Km (mHck-TA [1]): 62 ± 12.6 µM | Km ([2]; mHck-TA-HART + Nef-Consensus, Nef at 10-fold molar excess, read-out: Km, ATP): 76 ± 23.1 µM | reduction of the Km for ATP in the presence of Nef ([2]; mHck-TA-HART with Nef-Consensus vs alone): ~ 2.5 fold | Km (mHck-TA-HART [3]): 181 ± 28.7 µM | Km (mHck-TA-HART + Nef-SF2; mHck-TA-HART + Nef-SF2, Nef at 10-fold molar excess, read-out: Km, ATP): 69 ± 17.6 µM | reduction of the Km for ATP in the presence of Nef (mHck-TA-HART + Nef-SF2; [7]): ~ 2.5 fold

CC(C)(C)n1nc(-c2cccc3ccccc23)c2c(N)ncnc21 [NaPP1, reference compound]
increase in sensitivity to inhibition by NaPP1 in the presence of Nef (mHck-TA-HART + Nef-SF2; [7]): more than three-fold

Nef-SF2: recombinant HIV-1 Nef protein, B-clade allele SF2, expressed in E. coli
Kd (Mouse Hck SH3): 130 ± 30 nM | ka (Mouse Hck SH3): 5.54 ± 1.77 M^-1s^-1 × 10^5 | kd (Mouse Hck SH3): 7.00 ± 0.36 s^-1 × 10^-2 | enhancement of affinity by introduction of the HART sequence (Mouse Hck HART; [8]): 13 fold | increase in the association rate constant with SH3-HART (Mouse Hck HART; [8]): 2.5 fold | change in the dissociation rate constant with SH3-HART (Mouse Hck HART; HART vs wild-type mouse SH3 domain, decrease for Nef-SF2, essentially unchanged for Nef-Consensus): ~5 fold | Kd (Mouse Hck HART; [9]): 10 nM | ka (Mouse Hck HART; [9]): 14.20 ± 1.40 M^-1s^-1 × 10^5 | kd (Mouse Hck HART; [9]): 1.43 ± 0.01 s^-1 × 10^-2 | Kd (Human Hck SH3): 70 ± 10 nM | ka (Human Hck SH3): 1.60 ± 0.06 M^-1s^-1 × 10^5 | kd (Human Hck SH3): 1.18 ± 0.04 s^-1 × 10^-2 | Kd [4]: 12 nM | kinase:Nef ratio at maximal activation (mHck-TA-HART [5]): 1 to 1 | excess of Nef required for full activation (mHck-TA [6]): 5 fold
